Experimental data as given in article PMC12528448, “Resistance to CDK7 inhibitors directed by acquired mutation of a conserved residue in cancer cells” (The EMBO Journal, 2025).
Values joined by “and” are separate entries in the source; they are usually repeats but may differ in a detail not shown here. Equal values may be shown once.

What was measured:
Assay type in all cases: cell-based, human
LNCaP-CDK7-D97N cells = assay: Growth assay (SRB), LNCaP CDK7-D97N knock-in; conditions: for % Growth: LNCaP CDK7 D99N
Procedure: (§1) To determine the IC50 of drug treatments on growth, cells were seeded in 96-well culture plates. Two days after seeding, the cells were treated with increasing concentrations of drugs and incubated for 4 days. Cell number was determined using the SRB assay (Skehan et al, [1990]), and IC50 values were calculated using non-linear regression curve fitting in GraphPad Prism v10. For all other growth experiments, cells were seeded into 96-well plates, and appropriate drugs were added 2 days after seeding. Cells were then incubated in an IncuCyte Zoom live-cell imager, with cell confluency measured every 6 h. Cell doubling times were determined by non-linear curve fitting (exponential growth equation) in GraphPad Prism v10.
Alt-R^TM S.p. Cas9 nuclease V3, Alt-R CRISPR-Cas9 crRNA, TracrRNA and the donor templates were obtained from Integrated DNA Technologies. […] Cells were treated with 0.7 µM of Alt-R HDR Enhancer V2 to improve HRD efficiency. Sequences of the CRISPRs in the crRNA and the donor templates are shown in the Reagents and tools table. Donor templates were designed to include non-coding substitutions to aid genome DNA PCR for identifying knock-in events and to facilitate cloning; these substitutions are noted in the Reagents and tools table.

22Rv1 cells = assay: IncuCyte confluency growth, 22Rv1
Procedure: as §1

22Rv1-SamR cells = assay: IncuCyte confluency growth, 22Rv1-SamR; conditions: for % Confluency: 80nM SY1365, 22Rv1-SamR
Procedure: as §1

[1] = system: 22Rv1 homozygous CDK7-D97N CL3 cells; assay: IncuCyte confluency growth, 22Rv1 homozygous CDK7-D97N CL3
Procedure: as §1

[2] = system: PolII CTD Ser5 and CDK2 Thr160 phosphorylation in 22Rv1 cells; assay: Immunoblotting of CDK7 targets, 22Rv1
Procedure: Whole-cell lysates were prepared in RIPA buffer (Sigma-Aldrich), supplemented with protease and phosphatase inhibitor cocktails (Roche). Protein sample concentrations were determined using the Pierce BCA Protein Assay kit (ThermoFisher Scientific). […] PolII CTD phosphorylation antibodies (P-Ser2 (ab5095) and P-Ser5 (ab5131), used at 1:10,000 dilution), as well as total PolII (ab817; 1:2000 dilution) and β-actin (ab6276; 1:100,000 dilution) were purchased from Abcam.

[3] = 22Rv1, 5nM SY1365, Vehicle = 1.00
[4] = 22Rv1, 50nM SY1365, Vehicle = 1.00

CN(C)C/C=C/C(=O)Nc1ccc(C(=O)N[C@@]2(C)CCC[C@@H](Nc3ncc(Cl)c(-c4c[nH]c5ccccc45)n3)C2)nc1 [SY-1365]
% Growth (LNCaP-CDK7-D97N cells; Log10 Conc. (nM) 0.09): 63.76% and 49.89% | % Growth (LNCaP-CDK7-D97N cells; Log10 Conc. (nM) 0.69): 29.39% and 16.32% | % Growth (LNCaP-CDK7-D97N cells; Log10 Conc. (nM) 1.29): 15.69% and 13.01% | % Growth (LNCaP-CDK7-D97N cells; Log10 Conc. (nM) 1.89): -2.84% and -7.62% | % Growth (LNCaP-CDK7-D97N cells; Log10 Conc. (nM) 2.49): -7.57% and -9.89% | % Growth (LNCaP-CDK7-D97N cells; Log10 Conc. (nM) 3.10): -8.80% and -12.02% | % Growth (LNCaP-CDK7-D97N cells; Log10 Conc. (nM) 3.70): -8.97% | % Growth (LNCaP-CDK7-D97N cells; Log10 Conc. (nM) -0.52): 95.67% and 71.20% | % Growth (LNCaP-CDK7-D97N cells; Log10 Conc. (nM) -1.12): 99.75% and 96.82% | % Growth (LNCaP-CDK7-D97N cells; Log10 Conc. (nM) -1.72): 90.05% | Sensitivity in growth assays (LNCaP-CDK7-D97N cells; LNCaP-CDK7-D97N vs parental): remaining sensitive | % Confluency (22Rv1 cells; 80nM SY1365, 22Rv1, 0 hours): 11.42% and 19.49% and 18.80% | % Confluency (22Rv1 cells; 80nM SY1365, 22Rv1, 6 hours): 11.80% and 20.40% and 19.49% | % Confluency (22Rv1 cells; 80nM SY1365, 22Rv1, 12 hours): 10.21% and 17.43% and 16.82% | % Confluency (22Rv1 cells; 80nM SY1365, 22Rv1, 18 hours): 9.13% and 15.66% and 15.15% | % Confluency (22Rv1 cells; 80nM SY1365, 22Rv1, 24 hours): 8.54% and 14.77% and 14.37% | % Confluency (22Rv1 cells; 80nM SY1365, 22Rv1, 30 hours): 8.21% and 14.28% and 13.85% | % Confluency (22Rv1 cells; 80nM SY1365, 22Rv1, 36 hours): 8.00% and 13.79% and 13.42% | % Confluency (22Rv1 cells; 80nM SY1365, 22Rv1, 42 hours): 7.74% and 13.41% and 13.03% | % Confluency (22Rv1 cells; 80nM SY1365, 22Rv1, 48 hours): 7.60% and 13.19% and 12.71% | % Confluency (22Rv1 cells; 80nM SY1365, 22Rv1, 54 hours): 7.42% and 12.81% and 12.32% | % Confluency (22Rv1 cells; 80nM SY1365, 22Rv1, 60 hours): 7.30% and 12.50% and 12.14% | % Confluency (22Rv1 cells; 80nM SY1365, 22Rv1, 66 hours): 7.19% and 12.29% and 11.85% | % Confluency (22Rv1 cells; 80nM SY1365, 22Rv1, 72 hours): 7.07% and 12.06% and 11.63% | % Confluency (22Rv1 cells; 80nM SY1365, 22Rv1, 78 hours): 6.98% and 11.84% and 11.40% | % Confluency (22Rv1 cells; 80nM SY1365, 22Rv1, 84 hours): 6.88% and 11.65% and 11.26% | % Confluency (22Rv1 cells; 80nM SY1365, 22Rv1, 90 hours): 6.85% and 11.59% and 11.21% | % Confluency (22Rv1 cells; 80nM SY1365, 22Rv1, 96 hours): 6.73% and 11.35% and 10.98% | % Confluency (22Rv1 cells; 80nM SY1365, 22Rv1, 114 hours): 6.60% and 11.05% and 10.79% | % Confluency (22Rv1 cells; 80nM SY1365, 22Rv1, 120 hours): 6.58% and 10.92% and 10.70% | % Confluency (22Rv1 cells; 80nM SY1365, 22Rv1, 126 hours): 6.55% and 10.80% and 10.69% | % Confluency (22Rv1 cells; 80nM SY1365, 22Rv1, 132 hours): 6.55% and 10.73% and 10.58% | % Confluency (22Rv1 cells; 80nM SY1365, 22Rv1, 138 hours): 6.46% and 10.70% and 10.57% | % Confluency (22Rv1 cells; 80nM SY1365, 22Rv1, 144 hours): 6.45% and 10.59% and 10.48% | Growth inhibition over time (22Rv1 cells; 22Rv1, IncuCyte confluency): potently growth inhibited | % Confluency (22Rv1-SamR cells; 0 hours): 10.34% and 15.03% and 14.87% | % Confluency (22Rv1-SamR cells; 6 hours): 9.52% and 13.73% and 13.78% | % Confluency (22Rv1-SamR cells; 12 hours): 7.18% and 10.14% and 10.08% | % Confluency (22Rv1-SamR cells; 18 hours): 6.46% and 9.11% and 8.97% | % Confluency (22Rv1-SamR cells; 24 hours): 6.42% and 8.94% and 8.84% | % Confluency (22Rv1-SamR cells; 30 hours): 6.40% and 8.87% and 8.89% | % Confluency (22Rv1-SamR cells; 36 hours): 6.41% and 8.74% and 8.80% | % Confluency (22Rv1-SamR cells; 42 hours): 6.26% and 8.57% and 8.60% | % Confluency (22Rv1-SamR cells; 48 hours): 6.09% and 8.40% and 8.37% | % Confluency (22Rv1-SamR cells; 54 hours): 5.90% and 8.18% and 8.12% | % Confluency (22Rv1-SamR cells; 60 hours): 5.76% and 7.96% and 7.93% | % Confluency (22Rv1-SamR cells; 66 hours): 5.65% and 7.83% and 7.79% | % Confluency (22Rv1-SamR cells; 72 hours): 5.56% and 7.64% and 7.59% | % Confluency (22Rv1-SamR cells; 78 hours): 5.44% and 7.53% | % Confluency (22Rv1-SamR cells; 84 hours): 5.34% and 7.42% and 7.40% | % Confluency (22Rv1-SamR cells; 90 hours): 5.24% and 7.29% and 7.32% | % Confluency (22Rv1-SamR cells; 96 hours): 5.21% and 7.20% and 7.25% | % Confluency (22Rv1-SamR cells; 114 hours): 5.05% and 7.01% and 7.04% | % Confluency (22Rv1-SamR cells; 120 hours): 5.01% and 6.93% and 6.98% | % Confluency (22Rv1-SamR cells; 126 hours): 4.98% and 6.86% and 6.94% | % Confluency (22Rv1-SamR cells; 132 hours): 4.95% and 6.82% and 6.86% | % Confluency (22Rv1-SamR cells; 138 hours): 4.94% and 6.80% and 6.88% | % Confluency (22Rv1-SamR cells; 144 hours): 4.87% and 6.78% and 6.83% | Growth inhibition over time (22Rv1-SamR cells; 22Rv1-SamR, IncuCyte confluency, samuraciclib at 1.35 µM): potently growth inhibited | % Confluency ([1]; 80nM SY1365, CDK7D97N CL3, 0 hours): 10.64% and 16.42% and 15.20% | % Confluency ([1]; 80nM SY1365, CDK7D97N CL3, 6 hours): 12.17% and 18.19% and 16.81% | % Confluency ([1]; 80nM SY1365, CDK7D97N CL3, 12 hours): 12.25% and 16.05% and 14.62% | % Confluency ([1]; 80nM SY1365, CDK7D97N CL3, 18 hours): 11.21% and 14.01% and 12.61% | % Confluency ([1]; 80nM SY1365, CDK7D97N CL3, 24 hours): 9.91% and 12.68% and 11.43% | % Confluency ([1]; 80nM SY1365, CDK7D97N CL3, 30 hours): 9.03% and 11.88% and 10.71% | % Confluency ([1]; 80nM SY1365, CDK7D97N CL3, 36 hours): 8.55% and 11.34% and 10.26% | % Confluency ([1]; 80nM SY1365, CDK7D97N CL3, 42 hours): 8.35% and 11.02% and 9.94% | % Confluency ([1]; 80nM SY1365, CDK7D97N CL3, 48 hours): 8.30% and 10.78% and 9.70% | % Confluency ([1]; 80nM SY1365, CDK7D97N CL3, 54 hours): 8.19% and 10.49% and 9.48% | % Confluency ([1]; 80nM SY1365, CDK7D97N CL3, 60 hours): 8.11% and 10.33% and 9.30% | % Confluency ([1]; 80nM SY1365, CDK7D97N CL3, 66 hours): 8.06% and 10.08% and 9.17% | % Confluency ([1]; 80nM SY1365, CDK7D97N CL3, 72 hours): 8.00% and 9.91% and 9.02% | % Confluency ([1]; 80nM SY1365, CDK7D97N CL3, 78 hours): 7.89% and 9.76% and 8.94% | % Confluency ([1]; 80nM SY1365, CDK7D97N CL3, 84 hours): 7.83% and 9.66% and 8.79% | % Confluency ([1]; 80nM SY1365, CDK7D97N CL3, 90 hours): 7.73% and 9.55% and 8.72% | % Confluency ([1]; 80nM SY1365, CDK7D97N CL3, 96 hours): 7.64% and 9.51% and 8.65% | % Confluency ([1]; 80nM SY1365, CDK7D97N CL3, 114 hours): 7.42% and 9.25% and 8.52% | % Confluency ([1]; 80nM SY1365, CDK7D97N CL3, 120 hours): 7.37% and 9.31% and 8.48% | % Confluency ([1]; 80nM SY1365, CDK7D97N CL3, 126 hours): 7.26% and 9.19% and 8.45% | % Confluency ([1]; 80nM SY1365, CDK7D97N CL3, 132 hours): 7.22% and 9.15% and 8.43% | % Confluency ([1]; 80nM SY1365, CDK7D97N CL3, 138 hours): 7.16% and 9.12% and 8.33% | % Confluency ([1]; 80nM SY1365, CDK7D97N CL3, 144 hours): 7.11% and 8.98% and 8.32% | Growth inhibition over time ([1]; 22Rv1 homozygous CDK7-D97N clone, IncuCyte confluency, samuraciclib at 1.35 µM): potently growth inhibited | Relative Density P-Ser2 [2, 3]: 1.04 and 0.55 and 0.68 | Relative Density P-Ser5 [2, 3]: 0.62 and 1.03 | Relative Density ß-actin [2, 3]: 0.99 and 1.00 | Relative Density P-Ser5 [2, 4]: 0.61 and 0.64 and 1.06 | Relative Density ß-actin [2, 4]: 1.04 and 0.98 and 1.03
